This note sets out measurements from BindingDB's records for doi:10.1021/jm960054c (Merck Research Laboratories, 1996).

What is called Ki is a measure of affinity in units of concentration, obtained from inhibition or displacement.

The target of the experiment is Growth hormone secretagogue receptor type 1 (Sus scrofa). Briefly: Binding Affinity against Growth hormone secretagogue receptor of swine using [35S]MK-0677 as radioligand.

The compound `CC(C)(N)CC(=O)N[C@@H]1CCc2ccccc2N(Cc2ccc(-c3ccccc3-c3nnn[nH]3)cc2)C1=O` [3-Amino-3-methyl-N-{2-oxo-1-[2'-(1H-tetrazol-5-yl)-biphenyl-4-ylmethyl]-2,3,4,5-tetrahydro-1H-benzo[b]azepin-3-yl}-butyramide] gave a Ki of 63 nM. `CC(C)(N)CC(=O)N[C@H]1CCc2ccccc2N(Cc2ccc(-c3ccccc3-c3nnn[nH]3)cc2)C1=O` [3-Amino-3-methyl-N-{(S)-2-oxo-1-[2'-(1H-tetrazol-5-yl)-biphenyl-4-ylmethyl]-2,3,4,5-tetrahydro-1H-benzo[b]azepin-3-yl}-butyramide] returned a Ki greater than 5000 nM.
